Literature values in patent US4039736A (Bristol-Myers Company, priority 1976, dated 1977).

Tested on: animal tumor systems
Settings: reported in literature; cited from earlier work

CC(=O)[C@]1(O)Cc2c(O)c3c(c(O)c2[C@@H](O[C@H]2C[C@H](N)[C@H](O)[C@H](C)O2)C1)C(=O)c1c(O)cccc1C3=O [carminomycin]
activity against animal tumor systems: active against several animal tumor systems
